Assay results as given in PubChem BioAssay AID1259342 (Broad Institute, 2017).
Activity calls are given as the source filed them.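 Rule for the calls: active = fitted half-maximal inhibitory concentration AC50 at most ten times the top concentration tested; inconclusive = flat fit with 30 to 70% inhibition, or unusable fit; inactive = AC50 above ten times the top concentration.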

target: E3 ubiquitin-protein ligase TRIM62 (Homo sapiens) (UniProt Q9BVG3); assay: TRIM62 E3 ligase activity on CARD9 – biochemical, ubiquitin ELISA, AlphaLISA TUBE, CARD9-TRIM62 disruptor project, dose response (AID 1259342); conditions: TRIM62-mediated CARD9 ubiquitylation, AlphaLISA TUBE detection;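 for AC50: potency is for inhibitors that reduce CARD9 ubiquitylation signal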
Sequence (Q9BVG3 whole entry, looked up): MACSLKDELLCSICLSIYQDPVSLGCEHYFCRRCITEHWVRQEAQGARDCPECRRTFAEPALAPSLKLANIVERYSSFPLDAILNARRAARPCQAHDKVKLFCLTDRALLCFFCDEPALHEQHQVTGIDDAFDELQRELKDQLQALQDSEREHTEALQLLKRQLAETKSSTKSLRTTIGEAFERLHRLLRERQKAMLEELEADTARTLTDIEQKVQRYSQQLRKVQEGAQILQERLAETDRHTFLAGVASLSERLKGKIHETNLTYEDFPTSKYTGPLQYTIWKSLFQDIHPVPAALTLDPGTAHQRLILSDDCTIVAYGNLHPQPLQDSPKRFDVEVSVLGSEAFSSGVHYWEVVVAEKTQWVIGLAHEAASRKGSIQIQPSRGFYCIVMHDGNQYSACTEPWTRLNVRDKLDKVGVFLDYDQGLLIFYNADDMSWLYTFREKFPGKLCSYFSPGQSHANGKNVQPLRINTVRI

SMILES | AC50
CC(=O)c1cccc(OCC(=O)N(C)CC(=O)NCc2ccco2)c1 | 1.35 µM
CCc1cc2c(=O)n(Cc3ccco3)c(SC)nc2s1 | > 160 µM (inactive)
O=S(=O)(Nc1nc2ccc(S(=O)(=O)N3CCCCC3)cc2s1)c1ccccc1 | 42.2 µM
O=C(O)C1Oc2cc3ccccc3cc2O1 | 3.02 µM
O=C(Nc1nncs1)c1cc(-c2ccco2)nc2ccccc12 | 28.8 µM
NC(=O)C1(N2CCCCC2)CCN(c2ncc(NC(=O)c3ccc(Cl)cc3)cc2C(=O)O)CC1 | 18.2 µM
O=C(CC1Nc2ccccc2OC1=O)Nc1ccc(Cl)cc1 (stereo not drawn) | > 160 µM (inactive)
NC(=O)C1(N2CCCCC2)CCN(c2ncc(NC(=O)c3ccccc3)cc2C(=O)O)CC1 | 6.61 µM
CC1Cc2ccccc2N1CC(=O)NC(=O)NC(C)(C)C (stereo not drawn) | > 160 µM (inactive)
O=C(O)COc1ccc(-n2cccc2)cc1 | 14.7 µM
NC(=O)C1(N2CCCCC2)CCN(c2ncc(NC(=O)c3cccc(Cl)c3)cc2C(=O)O)CC1 | 14.2 µM
NC(=O)C1(N2CCCCC2)CCN(c2ncc(NC(=O)c3cccs3)cc2C(=O)O)CC1 | 35.8 µM
C=CC(=O)N1CCCC2(CCN(CCN3CCCC3)C2=O)C1 (stereo not drawn) | 50.8 µM
CC(C)(C)c1ccc(-c2nc(C#N)c(NCc3ccncc3)o2)cc1 | 22.3 µM
N#Cc1c(N)oc(-c2ccco2)c1-c1ccco1 | 29.6 µM
CCN(CCNC(=O)C1CCN(S(=O)(=O)c2c(C)noc2C)CC1)c1ccccc1 | > 160 µM (inactive)
Cc1ccccc1C(=O)Nc1cnc(N2CCC(C(N)=O)(N3CCCCC3)CC2)c(C(=O)O)c1 | 9.03 µM
O=C(O)c1cc(-c2ccc(-c3ccc(F)cc3)o2)nc2ccccc12 | 31.4 µM

SMILES | AC50
COc1ccc(N2CC3=C(N2)c2ccccc2CC3)cc1 | 54 µM
O=S(=O)(Nc1nccs1)c1ccc(-n2cccc2)cc1 | 17.4 µM
N#CCSc1nc2c(c(=O)n1Cc1ccco1)C1(CCCC1)Cc1ccccc1-2 | 57 µM
C[C@H](CO)N1C[C@H](C)[C@@H](CN(C)CC2CCCCC2)OCCCC[C@H](C)Oc2ccc(NS(C)(=O)=O)cc2C1=O | > 160 µM (inactive)
O=C(O)c1ccc2nc(-c3ccco3)c(-c3ccco3)nc2c1 | 11.8 µM
O=C(Cc1cccs1)Nc1nnc(Cc2ccccc2)s1 | 41.2 µM
CC1(C)Cc2ccccc2-c2nc(-c3ccccc3)oc(=O)c21 | 6.32 µM
Cc1noc(CN(C)C(=O)c2cc(-c3ccco3)nc3c(C)c(Cl)ccc23)n1 | 49.2 µM
Nc1c2c(nc3ccccc13)CCN(Cc1ccccc1)C2 | > 160 µM (inactive)
O=C(NCCCN1CCOCC1)c1cc(-c2ccco2)nc2ccccc12 | 11.3 µM
O=C1CS/C(=N\N=C\c2ccco2)N1c1ccccc1 | 22.2 µM
O=C(NCc1ccco1)c1c2c(nc3ccccc13)CCC2 | 17.3 µM
O=S(=O)(c1ccc2nc(-c3ccco3)c(-c3ccco3)nc2c1)N1CCOCC1 | 31.1 µM
Nc1ccccc1Sc1nccc(C(F)(F)F)n1 | > 160 µM (inactive)
CCOC(=O)c1[nH]c(Cc2[nH]c(C(=O)OCC)c(C)c2C)c(C)c1C | > 160 µM (inactive)
Cc1oc(CSCc2cc(C(=O)O)c(C)o2)cc1C(=O)O | > 160 µM (inactive)
O=C1c2ccccc2-c2nc3ccccc3nc21 | > 160 µM (inactive)
Cc1ccc(C(=O)Nc2cnc(N3CCC(C(N)=O)(N4CCCCC4)CC3)c(C(=O)O)c2)cc1 | 9.21 µM

same assay, conditions: TRIM62-mediated CARD9 ubiquitylation, AlphaLISA TUBE detection; at 38 µM (top of the series)

SMILES | activity change, negative = inhibition
Cc1ccc(-c2nnc(-c3nc(Nc4nc5ccccc5s4)c4ccccc4n3)o2)cc1 | inactive
Cc1ccc(-c2cc(C(=O)NCc3ccco3)c3ccccc3n2)o1 | inactive

same assay, conditions: TRIM62-mediated CARD9 ubiquitylation, AlphaLISA TUBE detection; at 80 µM (top of the series)

SMILES | activity change, negative = inhibition
COCCC(=O)N1CCCC2(CCN(CCN3CCCC3)C2=O)C1 (stereo not drawn) | inactive
CC(CCc1ccco1)N(C)S(=O)(=O)c1ccc2[nH]c(=O)ccc2c1 (stereo not drawn) | inactive
O=C(Nc1ccc2oc(-c3cccnc3)nc2c1)c1ccc2c(c1)OCCO2 | inactive
COCCCNC(=O)C1CCN(c2ccc(N3CCOCC3)nn2)CC1 | inactive
O=C(NCc1cccnc1)c1ccccc1-c1nc(-c2ccccc2)no1 | inactive
CCOC(=O)C1CCN(C(=O)CN(Cc2ccccc2)S(C)(=O)=O)CC1 | inactive
CS(=O)(=O)c1ccc2ccn(O)c2c1 | inactive
CC(C)=CCC(C#N)(CC=C(C)C)C(=O)O | inactive
N#Cc1c(-c2ccco2)cc(-c2cccnc2)nc1N | inactive
CCn1ccnc1C1CCN(C(=O)CCn2c(C)nc3ccccc32)CC1 | inactive
O=C(O)c1ccccc1SC1CC(=O)N(Cc2ccccc2)C1=O (stereo not drawn) | inactive
O=C(Nc1ccc2c(c1)nc1n2CCN(C2CCCCC2)C1)c1ccco1 | inactive
O=[N+]([O-])c1c(NCCCO)cc(SCc2ccco2)c2nonc12 | inactive
c1cn(CCc2noc(C3CCCC3)n2)c(-c2cc3n(n2)CCCNC3)n1 | inactive
CS(=O)(=O)N1CCN(c2ccc([N+](=O)[O-])c(SCc3ccco3)c2)CC1 | inactive
COc1ccc(CNC(=O)c2nc(Nc3ccc(C)cc3)c3ccccc3n2)cc1 | inactive
COc1ccc(Nc2nc(-c3nnc(-c4ccc(F)cc4)o3)nc3ccccc23)cc1Cl | inactive
O=C(Nc1ncccc1O)c1ccc(OCC2CCCO2)cc1 (stereo not drawn) | inactive
N#CNc1nc(O)cc(=O)[nH]1 | inactive
CCCN1CCCn2nc(CNC(=O)[C@@H](N)Cc3ccc(O)cc3)cc2C1 | inactive
CCOC(=O)/C=C/S(=O)(=O)c1ccc(NC(C)=O)cc1 | inactive
Cc1ncnc(N2CCC(c3nccn3Cc3cccnc3)CC2)c1C | inactive
Nc1ccc2ncccc2c1N | inactive
Clc1ccc2nc(CN3CCCCCC3)cn2c1 | inactive
O=C(COC(=O)c1cc(-c2ccco2)nc2ccccc12)NCc1ccc2c(c1)OCO2 | inactive

SMILES | activity change, negative = inhibition
Cc1ccc(Nc2nc(C(=O)Nc3ccc(Cl)cc3)nc3ccccc23)cc1 | inactive
CCNc1ncc(C(=O)NCCc2nc3c(s2)CCCC3)cn1 | inactive
Cc1ccc(C2CC(=O)C3=C(C2)Nc2ccccc2NC3c2cccnc2)cc1 (stereo not drawn) | inactive
CCN1CCN(C(=O)c2cc(-c3ccco3)nc3ccccc23)CC1 | inactive
O=C(CCc1nc(-c2ccccc2)no1)NCC1CNCCOC1 (stereo not drawn) | inactive
Cc1[nH]c2ccc(Cl)cc2c(=O)c1CN1CCCC1 | inactive
C(=N\n1cnnc1SCc1ccccc1)/c1ccco1 | inactive
Cc1scc(C(=O)NCc2ccco2)c1-c1ccccc1 | inactive
O=C(Nc1ccon1)c1cc2cccnc2n(Cc2ccccc2)c1=O | inactive
Cc1ccc2cc(CN(Cc3ccco3)S(C)(=O)=O)c(=O)[nH]c2c1 | inactive
Cc1occc1C(=O)NCc1cccc(CNC(=O)c2ccoc2C)c1 | inactive
CCCc1cc(C(=O)N2CC[C@H]3CNC[C@H]32)n(C)n1 | inactive
N#Cc1c2ccc(OCC(=O)NCc3ccco3)cc2n2ccccc12 | inactive
O=C1C=C(c2ccccc2)Nc2ccccc2N1 | inactive
Cc1cc(C)c2c(N)c(C(=O)Nc3cccc4ccccc34)sc2n1 | inactive
CCCN1CCCn2nc(CNC(=O)[C@H]3CC[C@@H](N)C3)cc2C1 | inactive
CN(C)C(CN=C1NS(=O)(=O)c2ccccc21)c1ccco1 (stereo not drawn) | inactive
COC[C@]1(O)CCN(C(=O)CCN(C)S(C)(=O)=O)CC1(C)C | inactive
O=C(Nc1cccc2ccccc12)NC1CC1 | inactive
O=[N+]([O-])c1cccc(-c2nnc3ccc4ccccc4n23)c1 | inactive
O=C(NCc1ccco1)[C@@H]1CSC2c3ccccc3C(=O)N21 (stereo partly drawn) | inactive
O=C(Nc1ccc(OCC(=O)N2CCOCC2)cc1)c1cncc(Br)c1 | inactive
O=C(NCc1ccco1)C1CCCN(S(=O)(=O)c2cccc3nonc23)C1 (stereo not drawn) | inactive
Cc1cncc(-c2ccc(S(N)(=O)=O)cc2F)c1 | inactive
COc1ccc(S(=O)(=O)c2ccccc2)cc1NS(=O)(=O)c1cccc(C(=O)O)c1 | inactive
